Source: patent US20160220710A1, “COMPOSITIONS AND METHODS FOR DELIVERING PHARMACEUTICAL AGENTS” (THE REGENTS OF THE UNIVERSITY OF MICHIGAN, priority 2015, published 2016)

What was measured:
RAW 264.7 cells = experiment: Cell viability assay (XTT assay); assay type: cell-based, murine; conditions: 24 h
Procedure: Cells were plated in triplicate wells at a density of 5×10^3 per well in 96-well plates in DMEM with 5% FBS and allowed to adhere overnight. Soluble CFZ (Stock solution 5 mM in DMSO) or CLDIs were added (0.25, 0.5, 1, 2, 4, 10, 20, 40 and 80 μM final concentrations) to cells and incubated (37° C.) for 24 h. XTT assay (Roche, UK) was carried out according to the manufacturer's instructions with absorbance measured at 450 nm and 690 nm using a Synergy-2 plate reader (Biotek). The cell viability percentage was calculated by comparing absorbance of CFZ and CLDI-treated cells to control (untreated) cells.

NF-κB (p65) = experiment: p65 nuclear translocation immunofluorescence; assay type: cell-based, murine
Procedure: The murine macrophage cell line RAW 264.7 was purchased from ATCC (Manassas, Va.) and maintained in DMEM (Life Technologies, Carlsbad, Calif.) supplemented with 10% FBS. Soluble CFZ or isolated CLDIs were added at various concentrations in DMEM with 5% FBS to 6-well plates containing 4×10^5 cells/well and incubated (24 h at 37° C. and 5% CO2). Culture supernatants were harvested at 24 h, centrifuged (1500×g for 5 min), and stored (−20° C.) in frozen aliquots prior to analysis. For experiments involving TLR stimulation, cells were washed twice with pre-warmed DPBS to remove extracellular, non-phagocytosed CLDIs or CFZ, and then the cells were serum-starved for 18 h in DMEM. […]
Brightfield and fluorescence (DAPI, FITC, Texas Red and Cy5) images were captured using the Nikon Eclipse Ti (Japan) inverted microscope equipped with a Nikon Digital Sight DS-Fi2 camera (Japan) for brightfield and Photometrics Coolsnap Myo camera (Tucson, Ariz.) for fluorescence. […] For determining the ratio of nucleus-to-cytoplasm p65 fluorescence, ImageJ was used following previously described methods (Fuseler, et al., Microsc. Microanal. 2006, 12, 269-276; Noursadeghi, M. et al., J. Immunol. Methods 2008, 329, 194-200). The average volume of CLDIs was calculated using the area, Feret max and min values of each CLDI acquired from ImageJ. […]

[1] = Baseline vital signs of 8 wk CFZ-treated mice; assay type: in vivo
Procedure: Clofazimine (CFZ, Sigma-Aldrich, C8895) was prepared in sesame oil (Shirakiku, Japan, or Roland, China) and Powdered Lab Diet 5001 (PMI International, Inc., St. […] Baik et al., 2011, supra). Control mice were fed with the same diet without CFZ. The animal protocol was approved by the University of Michigan's Animal Care and Use Committee in accordance with the National Institutes of Health guidelines (UCUCA #PRO0005111). The general health status of each PBS/LPS-instilled mice was monitored by measuring body weight and rectal temperature (Microprobe Thermometer, Physitemp Instruments, Clifton, N.J.), and cardiopulmonary function (arterial oxygen saturation, respiratory rate, heart rate and pulse distention) was monitored using MouseOx with a collar clip sensor ([…] Sciences Corp, Oakmont, Pa.) as previously described (Lax S et al., (2014) BMJ open […], et al. (2014) PLoS One 9(6):e98336). In brief, one day before IT instillations (D-1) the hair around the neck of each mouse was removed using Nair (Church & Dwight, Princeton, N.J.) to enable data acquisition using the collar clip sensor. The next day (D 0), immediately prior to the first LPS/PBS dose, and every 24 h afterwards until day 6 (D 6), the body weight, temperature and MouseOx readings were recorded. MouseOx data was acquired by very brief anesthesia of the mouse using 5% isoflurane to facilitate the placement of the collar clip sensor. The mouse was then placed in an enclosed chamber with ambient light and allowed to acclimatize for 5 min at which point the animals had recovered normal activities and physiological readings.

[2] = humans; cited from earlier work

SMILES: CC(C)/N=c1\cc2n(-c3ccc(Cl)cc3)c3ccccc3nc-2cc1Nc1ccc(Cl)cc1 [CFZ, 3-(p-chloroanilino)-10-(p-chlorophenyl)-2, 10-dihydro-2-isopropyliminophenazine]
- cell viability (RAW 264.7 cells; 2 μM): 61%
- cell viability (RAW 264.7 cells; 10 μM): 20%
- p65 nuclear translocation (NF-κB (p65); LPS stimulation, 3 h, 4 μM soluble CFZ or 40 μM CLDI): reduced p65 translocation in response to LPS
- p65 nuclear translocation (NF-κB (p65); naïve, no stimulation): did not induce nuclear translocation of p65
- arterial oxygen saturation, higher than control diet-treated [1]: 1.5%
- behavioral signs of sickness [1]: did not display any behavioral signs of sickness
- body temperature [1]: unaffected
- breathing rate, lower than control diet-treated [1]: 10.7%
- heart rate, lower than control diet-treated [1]: 9.3%
- pulse distention, lower than control diet-treated [1]: 16.9%
- weight, less than control diet-treated [1]: 6.7%
- Arterial O2 Saturation (% ± S.D.) ([1]; n = 16): 99.01 ± 0.24%
- Body Temperature (° C. ± S.D) ([1]; n = 16): 35.52 ± 0.76 °C
- Breathing rate (brpm ± S.D.) ([1]; n = 16): 154.29 ± 19.43 brpm
- Heart rate (bpm ± S.D.) ([1]; n = 16): 573.94 ± 85.28 bpm
- Pulse distention (μm ± S.D) ([1]; n = 16): 425.57 ± 52.32 μm
- Weight (g ± S.D) ([1]; n = 16): 24.39 ± 1.92 g
- pharmacokinetic half-life t1/2 [2]: ~70 days
